Earlier results in US8304000B2, “Process for preparing water extract of cinnamon” (Beijing Tang-An Nutrition & Healthcare Products Co. Ltd., priority 2010, dated 2012).

O=c1ccc2ccccc2o1 [Coumarin, 1-benzopyran-2-one]
solubility in alcohol (alcohol): readily soluble | solubility in water (water): poorly soluble
